pIC50: −log10 of the molar value. Where a SMILES comes first, the peptide text is derived from it.

In the assay the target is HLA A*3201 (Homo sapiens, UniProt P04439, A270S/D101S/D185E/E176V/E277Q/F133L/G103R/G107R/G231S/H175R/I121M/I218V/I322F/K168Q/L105A/L300P/L318F/M331R/P208A/P217A/Q94H/R106L/R138Q/S129P/T104I/T323A/T345S/V100E/V321M/V358M). As to the kind of experiment: biochemical. It counts as binding.
By pIC50 is commonly meant −log10 of the IC50, conventionally taken in molar units. On to `CC[C@H](C)[C@H](NC(=O)[C@H](CO)NC(=O)[C@H](CC(C)C)NC(=O)[C@H](CO)NC(=O)[C@H](CCCNC(=N)N)NC(=O)[C@H](Cc1c[nH]c2ccccc12)NC(=O)[C@@H](NC(=O)[C@@H](NC(=O)[C@H](C)N)[C@@H](C)O)[C@@H](C)CC)C(=O)O` [3102.0452] (H-ATIWRSLSI-OH), for which the pIC50 was 8.72.

As to `CC[C@H](C)[C@H](NC(=O)[C@H](CCC(N)=O)NC(=O)[C@H](CCC(=O)O)NC(=O)[C@H](CC(=O)O)NC(=O)[C@@H](NC(=O)[C@@H](N)CCSC)[C@@H](C)O)C(=O)N[C@@H](Cc1ccc(O)cc1)C(=O)N[C@@H](C)C(=O)N[C@@H](Cc1ccccc1)C(=O)O` [3102.0453] (H-MTDEQIYAF-OH), the negative-log IC50 (pIC50) is 7.74.

The compound `CC[C@H](C)[C@H](NC(=O)[C@@H](NC(=O)[C@H](CC(C)C)NC(=O)[C@H](CC(C)C)NC(=O)[C@H](CC(N)=O)NC(=O)[C@H](Cc1ccc(O)cc1)NC(=O)[C@H](CCSC)NC(=O)[C@H](CC(C)C)NC(=O)[C@@H](N)CC(C)C)[C@@H](C)O)C(=O)O` [3102.0454] (H-LLMYNLLTI-OH) showed a negative-log IC50 (pIC50) of 7.14. As for `CC[C@H](C)[C@H](NC(=O)[C@@H](NC(=O)[C@@H](NC(=O)[C@H](CC(C)C)NC(=O)[C@H](CC(C)C)NC(=O)[C@H](CC(N)=O)NC(=O)[C@H](Cc1ccc(O)cc1)NC(=O)[C@H](CCSC)NC(=O)[C@@H](N)CC(C)C)[C@@H](C)O)[C@@H](C)CC)C(=O)O` [3102.0455] (H-LMYNLLTII-OH), the figure is 7.52; as for `CC[C@H](C)[C@H](NC(=O)[C@@H](N)CCCCN)C(=O)N[C@@H](CC(N)=O)C(=O)N[C@@H](CC(N)=O)C(=O)N[C@@H](Cc1ccccc1)C(=O)N[C@@H](C)C(=O)N[C@@H](CC(N)=O)C(=O)N[C@@H](CCC(=O)O)C(=O)N[C@@H](Cc1ccccc1)C(=O)O` [3102.0456] (H-KINNFANEF-OH), 8.68. On to `CC[C@H](C)[C@H](NC(=O)[C@@H](NC(=O)[C@@H](N)CCCCN)[C@@H](C)O)C(=O)N[C@@H](Cc1ccccc1)C(=O)N[C@@H](CC(C)C)C(=O)N[C@@H](CO)C(=O)N[C@@H](CCC(=O)O)C(=O)N1CCC[C@H]1C(=O)N[C@@H](Cc1ccc(O)cc1)C(=O)O` [3102.0457] (H-KTIFLSEPY-OH), for which the negative logarithm of the IC50 (pIC50) is 8.54. The compound `CSCC[C@H](NC(=O)[C@@H](NC(=O)[C@@H](N)CCCCN)[C@@H](C)O)C(=O)N[C@@H](C)C(=O)N1CCC[C@H]1C(=O)N[C@H](C(=O)N[C@@H](Cc1c[nH]cn1)C(=O)N[C@H](C(=O)N[C@@H](Cc1ccc(O)cc1)C(=O)O)[C@@H](C)O)C(C)C` [3102.0458] (H-KTMAPVHTY-OH) showed a pIC50 of 8.34. For `CC[C@H](C)[C@H](NC(=O)[C@H](Cc1ccc(O)cc1)NC(=O)[C@H](CC(C)C)NC(=O)[C@H](CO)NC(=O)[C@@H](N)CCCCN)C(=O)N[C@H](C(=O)N[C@@H](CC(N)=O)C(=O)N[C@H](C(=O)N[C@@H](CC(C)C)C(=O)O)[C@@H](C)O)[C@@H](C)O` [3102.0459] (H-KSLYITNTL-OH), the negative logarithm of the IC50 (pIC50) was 9.28. Under `CC[C@H](C)[C@H](NC(=O)[C@H](CO)NC(=O)[C@H](CCSC)NC(=O)[C@H](CC(C)C)NC(=O)[C@@H](N)CCCNC(=N)N)C(=O)N[C@@H](CC(N)=O)C(=O)N[C@@H](CCCNC(=N)N)C(=O)NCC(=O)N[C@@H](Cc1ccccc1)C(=O)O` [3102.0465] (H-RLMSINRGF-OH) stands 8.52; under `CC[C@H](C)[C@H](NC(=O)[C@H](Cc1ccc(O)cc1)NC(=O)[C@@H](NC(=O)[C@@H](NC(=O)[C@@H](NC(=O)[C@H](CCSC)NC(=O)[C@@H](NC(=O)[C@@H](N)CCCCN)[C@@H](C)O)[C@@H](C)O)[C@@H](C)O)C(C)C)C(=O)N[C@@H](CC(C)C)C(=O)O` [3102.0466] (H-KTMTTVYIL-OH), 7.85; under `CC[C@H](C)[C@H](NC(=O)[C@@H]1CCCN1C(=O)[C@H](Cc1c[nH]cn1)NC(=O)[C@H](CC(N)=O)NC(=O)[C@@H](NC(=O)[C@H](CC(=O)O)NC(=O)[C@H](CCSC)NC(=O)[C@@H](NC(=O)[C@@H](N)CO)[C@@H](C)O)C(C)C)C(=O)O` [3102.0467] (H-STMDVNHPI-OH), 8.13. Regarding `CC(C)C[C@H](NC(=O)[C@H](CO)NC(=O)[C@H](CC(C)C)NC(=O)[C@@H](NC(=O)[C@H](CC(C)C)NC(=O)[C@H](Cc1c[nH]cn1)NC(=O)[C@H](CC(N)=O)NC(=O)[C@H](CC(C)C)NC(=O)[C@H](C)N)C(C)C)C(=O)O` [3102.0469] (H-ALNHLVLSL-OH), the negative-log IC50 (pIC50) was 7.39. As to `CC[C@H](C)[C@H](NC(=O)[C@H](CCC(=O)O)NC(=O)[C@@H](NC(=O)[C@@H](NC(=O)[C@H](CCC(=O)O)NC(=O)[C@H](CC(N)=O)NC(=O)[C@@H](NC(=O)[C@@H](N)CCCCN)[C@@H](C)CC)C(C)C)C(C)C)C(=O)N[C@@H](Cc1ccccc1)C(=O)O` [3102.0471] (H-KINEVVEIF-OH), the pIC50 is 7.72. Against the preceding compound, the pIC50 is 0.33 log units higher. Take `CC[C@H](C)[C@H](NC(=O)[C@@H](NC(=O)[C@@H](N)CCCCN)[C@@H](C)O)C(=O)N[C@@H](CC(N)=O)C(=O)N[C@@H](Cc1ccc(O)cc1)C(=O)N[C@@H](CO)C(=O)N[C@@H](Cc1ccccc1)C(=O)N[C@@H](Cc1ccccc1)C(=O)N[C@@H](CC(C)C)C(=O)O` [3102.0472] (H-KTINYSFFL-OH): the negative-log IC50 (pIC50) is 9.00.

`CC[C@H](C)[C@H](NC(=O)[C@H](CO)NC(=O)[C@H](CC(C)C)NC(=O)[C@@H](NC(=O)[C@H](CO)NC(=O)[C@H](C)NC(=O)[C@H](CC(C)C)NC(=O)[C@@H](NC(=O)[C@@H](N)CCC(N)=O)[C@@H](C)CC)[C@@H](C)CC)C(=O)O` [3102.0474] (H-QILASILSI-OH) showed a pIC50 of 7.66.

In turn, `CC[C@H](C)[C@H](NC(=O)CNC(=O)[C@H](CC(C)C)NC(=O)[C@@H](NC(=O)[C@H](CC(C)C)NC(=O)[C@H](Cc1ccc(O)cc1)NC(=O)[C@H](CCSC)NC(=O)[C@@H](NC(=O)[C@@H](N)CCSC)[C@@H](C)CC)C(C)C)C(=O)O` [3102.0477] (H-MIMYLVLGI-OH) had a negative logarithm of the IC50 (pIC50) of 7.01. On to `CC[C@H](C)[C@H](NC(=O)[C@@H](N)CCCCN)C(=O)N[C@@H](CC(N)=O)C(=O)N[C@@H](CCSC)C(=O)N[C@@H](CCC(N)=O)C(=O)N[C@H](C(=O)N[C@@H](CC(C)C)C(=O)N[C@@H](CC(C)C)C(=O)N[C@@H](Cc1ccccc1)C(=O)O)[C@@H](C)O` [3102.0488] (H-KINMQTLLF-OH), for which the negative logarithm of the IC50 (pIC50) is 8.00.

`CC[C@H](C)[C@H](NC(=O)[C@H](CC(N)=O)NC(=O)[C@H](Cc1ccccc1)NC(=O)[C@@H](NC(=O)[C@H](CCCCN)NC(=O)[C@H](Cc1ccccc1)NC(=O)[C@H](CC(N)=O)NC(=O)[C@@H](NC(=O)[C@H](C)N)[C@@H](C)CC)[C@@H](C)CC)C(=O)O` [3102.0489] (H-AINFKIFNI-OH): the pIC50 is 7.66. As to `CC[C@H](C)[C@H](NC(=O)[C@@H](NC(=O)[C@@H](N)CCCCN)[C@@H](C)O)C(=O)N[C@@H](Cc1ccc(O)cc1)C(=O)N[C@@H](CC(C)C)C(=O)N[C@@H](CC(C)C)C(=O)N[C@@H](CO)C(=O)N[C@@H](CC(C)C)C(=O)N[C@@H](Cc1ccccc1)C(=O)O` [3102.0490] (H-KTIYLLSLF-OH), the pIC50 was 8.00. Under `CC[C@H](C)[C@H](NC(=O)[C@H](CC(C)C)NC(=O)[C@H](CC(C)C)NC(=O)[C@H](Cc1ccccc1)NC(=O)[C@H](Cc1c[nH]cn1)NC(=O)[C@H](C)NC(=O)[C@H](CO)NC(=O)[C@@H](N)CCCCN)C(=O)N[C@@H](Cc1ccccc1)C(=O)O` [3102.0491] (H-KSAHFLLIF-OH) stands 9.72. `CC[C@H](C)[C@H](NC(=O)[C@H](CO)NC(=O)[C@@H](NC(=O)CNC(=O)[C@H](Cc1ccccc1)NC(=O)[C@H](CO)NC(=O)[C@H](CC(N)=O)NC(=O)[C@H](CC(C)C)NC(=O)[C@@H](N)CCCCN)C(C)C)C(=O)O` [3102.0496] (H-KLNSFGVSI-OH) showed a pIC50 of 9.26.

In turn, `CC[C@H](C)[C@H](NC(=O)[C@H](CCSC)NC(=O)[C@@H](NC(=O)[C@H](CO)NC(=O)[C@H](CO)NC(=O)[C@H](Cc1ccc(O)cc1)NC(=O)[C@H](CO)NC(=O)[C@H](CCSC)NC(=O)[C@@H](N)CCCCN)C(C)C)C(=O)O` [3102.0497] (H-KMSYSSVMI-OH) had a pIC50 of 7.85. `CSCC[C@H](NC(=O)[C@@H](N)Cc1c[nH]cn1)C(=O)N[C@@H](CC(C)C)C(=O)N[C@@H](CCC(=O)O)C(=O)N[C@@H](Cc1ccccc1)C(=O)N[C@@H](CC(C)C)C(=O)N[C@@H](Cc1ccc(O)cc1)C(=O)N[C@@H](CO)C(=O)N[C@@H](Cc1ccccc1)C(=O)O` [3102.0499] (H-HMLEFLYSF-OH) had a pIC50 of 9.52. As to `CC[C@H](C)[C@H](NC(=O)[C@@H](NC(=O)[C@H](Cc1ccc(O)cc1)NC(=O)[C@H](CC(C)C)NC(=O)[C@@H](N)CCCCN)[C@@H](C)O)C(=O)N[C@H](C(=O)N[C@@H](CO)C(=O)N[C@H](C(=O)N[C@@H](CC(C)C)C(=O)O)[C@@H](C)O)C(C)C` [3102.0508] (H-KLYTIVSTL-OH), the pIC50 was 8.15.

Compound `CC[C@H](C)[C@H](NC(=O)[C@H](C)NC(=O)[C@H](CCC(N)=O)NC(=O)[C@H](Cc1ccccc1)NC(=O)[C@H](C)NC(=O)[C@H](Cc1ccccc1)NC(=O)[C@H](CO)NC(=O)[C@@H](NC(=O)[C@@H](N)CCCNC(=N)N)[C@@H](C)O)C(=O)O` [3102.0512] (H-RTSFAFQAI-OH) had a negative logarithm of the IC50 (pIC50) of 8.42. Regarding `CC(C)C[C@H](N)C(=O)N[C@H](C(=O)NCC(=O)N[C@H](C(=O)N[C@@H](Cc1ccccc1)C(=O)N[C@H](C(=O)N[C@H](C(=O)N[C@@H](C)C(=O)N[C@@H](Cc1ccccc1)C(=O)O)[C@@H](C)O)C(C)C)[C@@H](C)O)[C@@H](C)O` [3102.0515] (H-LTGTFVTAF-OH), the pIC50 is 8.06. As for `CSCC[C@H](NC(=O)[C@@H](N)C(C)C)C(=O)N[C@@H](Cc1ccc(O)cc1)C(=O)N[C@@H](C)C(=O)N[C@@H](Cc1ccccc1)C(=O)N[C@H](C(=O)N[C@H](C(=O)N1CCC[C@H]1C(=O)N[C@@H](CC(C)C)C(=O)O)[C@@H](C)O)[C@@H](C)O` [3102.0516] (H-VMYAFTTPL-OH), the figure is 9.54; as for `CC[C@H](C)[C@H](NC(=O)[C@H](CC(N)=O)NC(=O)[C@H](CCSC)NC(=O)[C@@H](NC(=O)[C@@H](N)CCSC)[C@@H](C)O)C(=O)N[C@H](C(=O)N[C@@H](CC(N)=O)C(=O)N[C@@H](Cc1ccccc1)C(=O)N[C@@H](Cc1ccccc1)C(=O)O)C(C)C` [3102.0518] (H-MTMNIVNFF-OH), 8.72.

These data come from article PMC2248166, “Quantitative peptide binding motifs for 19 human and mouse MHC class I molecules derived using positional scanning combinatorial peptide libraries” (Immunome Research, 2008).
